# Measured values from article PMC6270420, “Antibacterial Activity of Salicylanilide 4-(Trifluoromethyl)benzoates” (Molecules, 2013).
# Like-named read-outs stand apart in the source and are kept apart here.
# Experiments:
# Mtb. 234/2005 = assay: microbe, parasite or virus in culture; type: cell-based; conditions: Mycobacterium tuberculosis, read-out: MIC Mtb. 234/2005
# Mtb. Praha 1 = assay: microbe, parasite or virus in culture; type: cell-based; conditions: Mycobacterium tuberculosis, read-out: MIC Mtb. Praha 1
# [1] = tested on: Mycobacterium kansasii 235/80; assay: Antimycobacterial MIC micromethod; type: cell-based; conditions: read-out: MIC M. kansasii 235/80
# [2] = tested on: Escherichia coli CCM 4517; assay: Antibacterial microdilution broth method; type: cell-based
# Description: (§1) The in vitro antibacterial activity was assayed against eight Gram-positive and Gram-negative strains: Staphylococcus aureus CCM 4516/08, methicillin-resistant Staphylococcus aureus H 5996/08 (MRSA), Staphylococcus epidermidis H 6966/08, Enterococcus sp. J 14365/08; Escherichia coli CCM 4517, Klebsiella pneumoniae D 11750/08, ESBL-positive Klebsiella pneumoniae J 14368/08, and Pseudomonas aeruginosa CCM 1961.
# (§2) The microdilution broth method modified according to standard M07-A07 in Mueller-Hinton broth (HiMedia Laboratories, Mumbai, India) adjusted to pH 7.4 (±0.2) was used. The tested compounds were dissolved in DMSO to the final concentrations ranging from […]. Benzylpenicillin (penicillin G) was used as a comparative drug. Bacterial inoculum in sterile water was prepared to match 0.5 McFarland scale ([…]). The minimum inhibitory concentrations were assayed as 90% (IC90) or higher reduction of growth when compared to the control. The determination of results was performed visually and spectrophotometrically (at 540 nm). The values of MICs were determined after 24 and 48 h of incubation in the darkness at 35 °C (±0.1) in a humid atmosphere.
# [3] = tested on: Staphylococcus epidermidis H 6966/08; assay: Antibacterial microdilution broth method; type: cell-based; conditions: read-out: MIC/IC90 S. epidermidis H 6966/08
# Description: as §1, §2
# [4] = tested on: methicillin-resistant Staphylococcus aureus H 5996/08 (MRSA); assay: Antibacterial microdilution broth method; type: cell-based; conditions: read-out: MIC/IC90 MRSA H 5996/08
# Description: as §1, §2
# [5] = tested on: Staphylococcus aureus CCM 4516/08; assay: Antibacterial microdilution broth method; type: cell-based; conditions: read-out: MIC/IC90 S. aureus CCM 4516/08
# Description: as §1, §2
# [6] = tested on: Enterococcus sp. J 14365/08; assay: Antibacterial microdilution broth method; type: cell-based; conditions: read-out: MIC/IC90 Enterococcus sp. J 14365/08
# Description: as §1, §2
# [7] = tested on: M. kansasii 6509/96 (clinically isolated strain); assay: Antimycobacterial MIC micromethod; type: cell-based; conditions: Mycobacterium kansasii, read-out: MIC M. kansasii 6509/96
# Mtb. 7357/1988 = assay: microbe, parasite or virus in culture; type: cell-based; conditions: Mycobacterium tuberculosis, read-out: MIC Mtb. 7357/1988
# [8] = target: T1, mycobacterial isocitrate lyase (ICL1, Rv0467) (Mycobacterium tuberculosis, UniProt P9WKK7); assay: Isocitrate lyase inhibition assay (ICL1); type: biochemical, Mycobacterium tuberculosis H37Rv; conditions: 10 μmol/L; read-out: % ICL inhibition at 10 μmol/L (± standard deviation)
# T1 construct: His tag (from pET-28b(+)); made in house; host or cells: E. coli BL21(DE3), pET-28b(+) plasmid
# T1 sequence (P9WKK7 1-428): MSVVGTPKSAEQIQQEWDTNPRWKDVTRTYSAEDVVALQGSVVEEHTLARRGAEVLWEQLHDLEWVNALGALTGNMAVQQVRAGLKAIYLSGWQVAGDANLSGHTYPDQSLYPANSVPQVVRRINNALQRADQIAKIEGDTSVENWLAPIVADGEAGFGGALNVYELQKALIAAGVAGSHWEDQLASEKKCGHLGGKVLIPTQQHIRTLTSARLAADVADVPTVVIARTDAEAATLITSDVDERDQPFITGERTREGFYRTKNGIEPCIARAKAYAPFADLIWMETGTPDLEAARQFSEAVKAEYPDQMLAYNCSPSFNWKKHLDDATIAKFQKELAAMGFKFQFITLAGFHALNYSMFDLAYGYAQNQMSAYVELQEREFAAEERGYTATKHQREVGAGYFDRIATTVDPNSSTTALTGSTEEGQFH
# Mtb. Praha 131 (XDR-TB) = assay: microbe, parasite or virus in culture; type: cell-based; conditions: Mycobacterium tuberculosis, read-out: MIC Mtb. Praha 131 (XDR-TB)
# Mtb. 53/2009 = assay: microbe, parasite or virus in culture; type: cell-based; conditions: Mycobacterium tuberculosis, read-out: MIC Mtb. 53/2009
# [9] = tested on: Gram-positive cocci including MRSA; assay: Antibacterial microdilution, summary for Gram-positive cocci; type: cell-based; conditions: Staphylococcus aureus, read-out: MICs against Gram-positive cocci
# Description: as §1, §2
# [10] = tested on: Mycobacterium tuberculosis 331/88 (H37Rv); assay: Antimycobacterial MIC micromethod, Šula's medium; type: cell-based
# Mtb. 9449/2006 = assay: microbe, parasite or virus in culture; type: cell-based; conditions: Mycobacterium tuberculosis, read-out: MIC Mtb. 9449/2006
# [11] = tested on: Mycobacterium avium 330/88; assay: Antimycobacterial MIC micromethod; type: cell-based
# HepG2 cells = assay: Cytotoxicity evaluation (CellTiter 96 MTS); type: cell-based, human; conditions: Homo sapiens, read-out: IC50 HepG2
# Description: Seven esters and their parent salicylanilides with the most robust antimicrobial activity were tested for cytotoxicity in the human hepatocellular liver carcinoma cell line HepG2 (passages 21–24; ECACC, Salisbury, UK) using a standard colorimetric method measuring a tetrazolium salt reduction (CellTiter(R) 96 AQueous One Solution Assay, Promega G3580, Madison, WI, USA).
# The cells were routinely cultured in Minimum Essentials Eagle Medium (Sigma-Aldrich, Darmstadt, Germany) supplemented with 10% foetal bovine serum (PAA; Biotech, Prague, Czech Republic), 1% of L-glutamine solution (Sigma-Aldrich), and non-essential amino acids solution (Sigma-Aldrich) in a humidified atmosphere containing 5% CO2 at 37 °C. For subculturing, the cells were harvested after trypsin/EDTA (Sigma-Aldrich) treatment at 37 °C. The cells treated with the tested substances were used as experimental groups. Untreated HepG2 cells were used as control groups.
# The cells were seeded in density 1 × 10^4 cells per well in a 96-well plate with microscopic control. Next day, the cells were treated with each of the tested substances. […] The most of the tested compounds were prepared in incubation concentrations of 0.01–20 µM in triplicates. 4-(Trifluoromethyl)benzoic acid was applied in the concentrations of 10–4,000 µM in triplicates. The following types of controls were included: determination of 100% viability and 0% viability (the cells treated by 10% DMSO), no cell control and vehiculum controls. These checking samples were prepared in triplicates.
# The treated cells were incubated together with controls at 37 °C for 24 h in 5% CO2 atmosphere. After this time reagent from the kit CellTiter 96 AQueous One Solution Cell Proliferation Assay was added. The CellTiter 96 assay is based on the reduction of tetrazolium salt MTS [3-(4,5-dimethylthiazol-2-yl)-5-(3-carboxymethoxyphenyl)-2-(4-sulfophenyl)-2H-tetrazolium] to water-soluble formazan dye by metabolically active cells. The reduction of the reagent is attributed to availability of NADH or NADPH. The decline in levels of these metabolically important compounds in the cell causes that the production of formazan is reduced. The tested plate was incubated for 2 h at 37 °C and 5% CO2 and after this time, the absorbance was recorded at 490 nm using a 96-well plate reader (TECAN, Infinite M200, Grödig, Austria).
# The results were expressed as inhibitory concentration which is necessary to inhibit cell viability to 50% from the maximal (control) viability (IC50). A standard toxicological parameter IC50 was calculated in each of the tested substances using GraphPad Prism software (version 5.02; GraphPad Software Inc., San Diego, CA, USA).
# [12] = tested on: Mycobacterium tuberculosis, M. avium and M. kansasii; assay: Antimycobacterial MIC, summary over all mycobacterial strains; type: cell-based; conditions: range over all strains and times; read-out: MICs against all mycobacterial strains
# [13] = CCM4517, 24 h, read-out: MIC/IC90 E. coli CCM 4517
# [14] = CCM4517, 48 h, read-out: MIC/IC90 E. coli CCM 4517
# [15] = 336 h, 14 d, read-out: MIC Mtb. 331/88
# [16] = 504 h, 21 d, read-out: MIC Mtb. 331/88
SMILES,"MIC ([1]; 235/80, 168 h, 7 d)","MIC ([1]; 235/80, 336 h, 14 d)","MIC ([1]; 235/80, 504 h, 21 d)","MIC [2, 13]","MIC [2, 14]","MIC ([3]; H6966/08, 24 h)","MIC ([3]; H6966/08, 48 h)",MIC ([4]; 24 h),MIC ([4]; 48 h),"MIC ([5]; CCM4516, 24 h)","MIC ([5]; CCM4516, 48 h)","MIC ([6]; SP.J14365/08, 24 h)","MIC ([7]; 168 h, 7 d)","MIC ([7]; 336 h, 14 d)","MIC ([7]; 504 h, 21 d)",inhibition at 10 µM [8],"MIC [10, 15]","MIC [10, 16]","MIC ([11]; 330/88, 336 h, 14 d)","MIC ([11]; 330/88, 504 h, 21 d)",further results
O=C(Oc1cc(Cl)ccc1C(=O)Nc1cccc(Cl)c1)c1ccc(C(F)(F)F)cc1 [1b],1 µM,4 µM,4 µM,> 250 µM,> 250 µM,0.98 µM,1.95 µM,0.98 µM,1.95 µM,0.98 µM,1.95 µM,7.81 µM,2 µM,8 µM,8 µM,13 ± 1.7%,4 µM,4 µM,8 µM,8 µM,"MIC (Mtb. 234/2005; 336 h): 8 µM; MIC (Mtb. 234/2005; 504 h): 8 µM; MIC (Mtb. Praha 1; 336 h): 4 µM; MIC (Mtb. Praha 1; 504 h): 4 µM; MIC ([6]; SP.J14365/08, 48 h): 15.6 µM; MIC (Mtb. 7357/1988; 336 h): 8 µM; MIC (Mtb. 7357/1988; 504 h): 8 µM; MIC (Mtb. Praha 131 (XDR-TB); 336 h): 8 µM; MIC (Mtb. Praha 131 (XDR-TB); 504 h): 8 µM; MIC (Mtb. 53/2009; 336 h): 8 µM; MIC (Mtb. 53/2009; 504 h): 8 µM; MIC [9]: < 1 µM; MIC (Mtb. 9449/2006; 336 h): 4 µM; MIC (Mtb. 9449/2006; 504 h): 4 µM"
O=C(Oc1ccc(Cl)cc1C(=O)Nc1cccc(F)c1)c1ccc(C(F)(F)F)cc1 [1k],8 µM,16 µM,16 µM,> 250 µM,> 250 µM,3.9 µM,3.9 µM,0.98 µM,1.95 µM,3.9 µM,3.9 µM,31.2 µM,8 µM,16 µM,16 µM,≥ 20%,8 µM,8 µM,16 µM,32 µM,"MIC ([6]; SP.J14365/08, 48 h): > 250 µM; MIC [9]: < 1 µM"
O=C(Oc1cc(Cl)ccc1C(=O)Nc1ccc(C(F)(F)F)cc1)c1ccc(C(F)(F)F)cc1 [1p],2 µM,2 µM,4 µM,31.2 µM,250 µM,0.49 µM,0.98 µM,0.49 µM,0.98 µM,0.49 µM,0.98 µM,0.49 µM,1 µM,4 µM,4 µM,17 ± 2.3%,2 µM,2 µM,2 µM,8 µM,"IC50 (HepG2 cells; HepG2, 24 h, cytotoxicity): 1.77 µM; MIC ([2]; CCM4517, time not stated, read-out: MIC E. coli (partial susceptibility)): 31.2 µM; MIC ([6]; SP.J14365/08, 48 h): 3.9 µM; MIC [9]: < 1 µM"
O=C(Oc1ccc(Br)cc1C(=O)Nc1ccc(C(F)(F)F)cc1)c1ccc(C(F)(F)F)cc1 [1r],1 µM,2 µM,4 µM,–,–,–,–,–,–,–,–,–,1 µM,2 µM,4 µM,≥ 20%,1 µM,1 µM,2 µM,4 µM,"IC50 (HepG2 cells; HepG2, 24 h): 2.03 µM; MIC (Mtb. 234/2005; 336 h): 0.5 µM; MIC (Mtb. 234/2005; 504 h): 1 µM; MIC (Mtb. Praha 1; 336 h): 0.5 µM; MIC (Mtb. Praha 1; 504 h): 1 µM; MIC (Mtb. 7357/1988; 336 h): 1 µM; MIC (Mtb. 7357/1988; 504 h): 1 µM; MIC (Mtb. Praha 131 (XDR-TB); 336 h): 0.5 µM; MIC (Mtb. Praha 131 (XDR-TB); 504 h): 1 µM; MIC (Mtb. 53/2009; 336 h): 1 µM; MIC (Mtb. 53/2009; 504 h): 2 µM; MIC ([10]; time not stated, read-out: MIC against M. tuberculosis): 1 µM; MIC [12]: 1 to 4 µM; MIC (Mtb. 9449/2006; 336 h): 1 µM; MIC (Mtb. 9449/2006; 504 h): 1 µM"
